Data as given in PMC12074795, “Synthesis and biological evaluation of esterified anti-inflammatory drugs with ethylene glycol linkers: cytotoxicity, anti-inflammatory and antioxidant properties” (Royal Society Open Science, 2025).

Columns and labels:
[1] = DPPH radical scavenging test; type: biochemical; settings: 517 nm, 30 min
Description: (§1) The in vitro antioxidant ability of the compounds synthesized in this work was evaluated using three different assays, including (i) the ABTS radical cation reduction-decolorization test, which uses the technique of Khan et al. consisting of the reduction of the cation radical by an antioxidant through the discoloration measured by absorption at the wavelength of 734 nm; (ii) interaction with the stable free radical DPPH, based on Bassene’s method, in which the scavenging of DPPH radicals is carried out by a colorimetric method consisting of the reduction of the DPPH radical, determined by its absorption at a wavelength of 517 nm; and (iii) the FRAP test according to the protocol of Path Canada, based on the ability of a substance to reduce Fe^3+ ions to Fe^2+ ions, which, in the presence of 1,10-phenanthroline, form a red-orange complex whose optical density can be measured at 505 nm.
The DPPH radical trapping protocol is based on Bassene’s method, modified for colorimetric analysis. DPPH is a stable purple organic nitrogen radical that absorbs light at 517 nm. When an anti-free radical agent is present, DPPH is reduced to a stable yellow compound, indicated by a loss of colour between 470 and 517 nm. A 0.02% DPPH solution was made with ethanol and stored in a sealed jar in the dark. Stock solutions of the synthesized compounds were prepared by dissolving 100 mg of each in 1 ml of DMSO, and the final concentration of DMSO concentration in the first well was 0.5%. These stocks were then diluted to achieve concentrations (500, 250, 125, 62.5, 31.25, 15.625 and 7.8125)/Mi in mM (Mi: molecular weight of each synthetic compound). Each dilution (25 µl) was put to the wells and 75 µl of the DPPH solution (0.02%) were added. Optical densities were measured at 517 nm after 30 min of incubation in the dark. The negative control used DPPH alone, while the positive control used gallic acid treated with solutions of the synthesized compounds at final concentrations (50, 25, 12.5, 6.25, 3.125, 1.5625 and 0.78125)/Mi in mM. Synthesized compounds were also tested alone to assess fluorescence.
Assays were performed in duplicate, and results were averaged. Percentage inhibition (PI), reflecting the antioxidant activity related to the DPPH˙ radical scavenging effect, was calculated using the following formula:
(PI)=Acontrol−Atest/Acontrol×100,
where Acontrol = absorbance of the control sample and Atest = absorbance of the tested sample.
(§2) The percentages of scavenging or 50% reduction were calculated using gallic acid as a standard for 100% reduction. The concentration of radical scavengers needed to neutralize 50% of free radicals, referred to as SC50, was determined using GraphPad Prism 8.0.1 software (244).

[2] = Ferric reducing antioxidant power (FRAP) test; type: biochemical; settings: 505 nm
Description: as §1
The Fe^3+ reduction test followed Path Canada’s protocol with some modifications, assessing the reduction of Fe^3+ ions to Fe^2+ ions, which form a red-orange complex with 1,10-phenanthroline, measurable at 505 nm. The colour intensity correlates with the amount of Fe^3+ reduced. Four solutions were prepared: 1.2 mg ml^−1 of Fe^3+ solution (1.2 mg FeCl3 in 1 ml distilled H2O), 0.2% ortho-phenanthroline solution (200 mg powder in 100 ml ethanol), 2 mg ml^−1 of gallic acid solution (2 mg gallic acid in 1 ml distilled H2O) as a positive control, stock and dilute solutions of the synthesized compounds (see §3.2.5.1). In a 96-well microplate, 180 µl distilled H2O was added to the first column and 100 µl to others for dilution. Each compound solution (20 µl at 10 mg ml^−1) was mixed with 25 µl Fe^3+ solution and incubated for 15 min in the dark at room temperature. Afterwards, 50 µl ortho-phenanthroline solution was added, followed by another 15 min incubation. Optical density was measured at 505 nm using a TECAN M200 plate reader. The positive control was treated similarly to the DPPH and ABTS assays.
as §2

[3] = first replicate, read-out: DPPH SC50(1)
[4] = mean of duplicate, read-out: DPPH mean SC50
[5] = second replicate, read-out: DPPH SC50(2)
[6] = first replicate, read-out: FRAP SC50(1)
[7] = mean of duplicate, read-out: FRAP mean SC50
[8] = second replicate, read-out: FRAP SC50(2)

EC50 [1, 3]	EC50 [1, 4]	EC50 [1, 5]	EC50 [2, 6]	EC50 [2, 7]	EC50 [2, 8]	Compound
9.81 mM	10 mM	10.2 mM	12.9 mM	13 mM	13.2 mM	CC(C)Cc1ccc(C(C)C(=O)O)cc1 (stereo not shown) [Compound 1, ibuprofen, reference compound]
5.05 mM	4.92 mM	4.78 mM	6.79 mM	6.79 mM	6.79 mM	CC(C)Cc1ccc(C(=O)OCCOC(=O)C(C)c2ccc(CC(C)C)cc2)cc1 (stereo not shown) [Compound 2, 2-((2-(4-isobutylphenyl)propanoyl)oxy)ethyl 4-isobutylbenzoate]
10.5 mM	10.4 mM	10.4 mM	7.58 mM	7.48 mM	7.39 mM	CC(C)Cc1ccc(C(C)C(=O)OCCO)cc1 (stereo not shown) [Compound 3, 2-hydroxyethyl 2-(4-isobutylphenyl)propanoate]
3.5 mM	3.52 mM	3.53 mM	4.66 mM	4.67 mM	4.67 mM	CCCCCCCCCCCC(=O)OCCOC(=O)C(C)c1ccc(CC(C)C)cc1 (stereo not shown) [Compound 5a, 2-((2-(4-isobutylphenyl)propanoyl)oxy)ethyl dodecanoate]
12.2 mM	12.1 mM	12.1 mM	11 mM	10.9 mM	10.9 mM	O=C(OCCO)c1ccccc1O [Compound 7, 2-hydroxyethyl 2-hydroxybenzoate]
11.1 mM	11 mM	10.9 mM	13.8 mM	13.7 mM	13.6 mM	O=C(O)/C=C/c1ccccc1 [Compound 11, cinnamic acid, reference compound]
8.63 mM	8.68 mM	8.73 mM	6.21 mM	6.21 mM	6.22 mM	O=C(/C=C/c1ccccc1)OCCOC(=O)c1ccccc1O [Compound 12, (E)-2-(cinnamoyloxy)ethyl 2-hydroxybenzoate]
6.61 mM		6.46 mM	6.73 mM	6.69 mM	6.66 mM	O=C(OCCOC(=O)c1ccccc1O)c1ccccc1O [Compound 13, Ethane-1,2-diyl bis(2-hydroxybenzoate)]
6.64 mM	6.13 mM	6.68 mM	7.68 mM		7.27 mM	CC(C)Cc1ccc(C(C)C(=O)OCCOC(=O)C=Cc2ccccc2)cc1 (stereo not shown) [Compound 14, 2-((2-(4-isobutylphenyl)propanoyl)oxy)ethyl cinnamate]
5.82 mM	5.79 mM	5.77 mM	8.06 mM	8.03 mM	8 mM	CCCCCCCCCCCC(=O)OCCOC(=O)c1ccccc1O [DEW4a]
